Laboratory results reported in patent publication US20090257999A1, “Method of preventing contrast-induced nephropathy” (Inotek Pharmaceuticals Corporation, priority 2007, published 2009).

Tests used:
Format in all cases: in vivo, rat
[1] = tested on: Neutrophil gelatinase-associated lipocalin (NGAL); assay: Plasma NGAL by ELISA, Example 1; settings: diabetic rats + i.v. Iomeprol; Metalloporphyrin A 1 mg/kg or NAC 10 mg/kg; versus drug placebo; readings 0-96 hours
Method: (§1) Experimental model for assessing the effects of Metalloporphyrin A on CIN: Diabetic (n=8) for group #'s 1-9 or wild-type rats (n=10) for group #'s 10 and 11 were treated with drug 60 min prior to contrast agent administration. At the “0” time point, Iomeprol was administered with ensuing drug intervention dosing every 12 hours for Metalloporphyrin A from 24-84 hours or every 24 hours for NAC from 24-72 hours. At the 96 hour time point, kidneys were harvested for histopathology, MPO and MDA measurements. From 0-96 hours, plasma samples from all animals per group were screened for urea, creatinine, fractional excretion of Na^+ and NGAL.
Neutrophil gelatinase-associated lipocalin (NGAL) has recently been proposed as a real-time indicator of active kidney damage by Mori, K., Nakao, K., Kidney International (2007) 71, 967-970. The plasma from 5 different diabetic animals per experimental group were taken for measurement of NGAL by ELISA as outlined below:
1) For diabetic rats without contrast agent, non-diluted plasma was used. For diabetic rats with contrast agent, plasma samples were diluted 1:400 with saline prior to use.
100 microliter diluted/non-diluted plasma samples or recombinant NGAL protein (25-1000 ng/ml) were added to pre-coated ELISA plates containing a monoclonal antibody raised against NGAL. […]
5) Plates were read at an absorbance of 450 nm.

[2] = tested on: malondialdehyde (MDA) in kidneys; assay: Kidney malondialdehyde (MDA) levels, Example 1; settings: at 96 hours
Method: as §1
Levels of malondialdehyde (MDA) in kidneys were determined as an indicator of lipid peroxidation following a protocol described previously (Davenport et. al. Clin. Transplant. 9 (3 Pt 1):171-51995).
Kidney tissue was weighed and homogenized in a 1.15% (wt/vol) KCl solution. A […] aliquot of homogenate was then removed and added to a reaction mixture containing […] 8.1% (wt/vol) lauryl sulfate, 1.5 mL 20% (vol/vol) acetic acid (pH 3.5), 1.5 mL 0.8% (wt/vol) thiobarbituric acid, and 700 mL distilled water. Samples were then boiled for one hour at 95° C. and centrifuged at 3000 g for 10 minutes. The absorbance of the supernatant was measured spectrophotometrically at […]. MDA levels were expressed as μM/100 mg wet tissue.

[3] = tested on: ICAM-1, Nitrotyrosine and PAR expression; assay: Immunohistochemical localization of ICAM-1, nitrotyrosine and poly(ADP-ribose) in kidney, Example 1; settings: diabetic rats + Iomeprol; metalloporphyrin A 1 mg/kg 60 min prior to Iomeprol, or NAC 10 mg/kg
Method: as §1
Rat kidneys fixed in 10% (wt/vol) neutral buffered paraformaldehyde and […] sections were prepared from paraffin-embedded tissues. After deparaffination, endogenous peroxidase was quenched using 0.3% (vol/vol) H2O2 in 60% methanol for 30 minutes. The sections were permeabilized using 0.1% (wt/vol) Triton X-100 in phosphate-buffered saline (PBS; 0.01 mol/L, pH 7.4) for 20 minutes. Nonspecific adsorption was minimized by incubating sections in 2% (vol/vol) normal goat serum in PBS for 20 minutes. Endogenous avidin- and biotin-binding sites were blocked by sequential incubation for 15 minutes with avidin (DBA, Milan, Italy) and biotin (DBA, Milan, Italy), respectively. The sections were then incubated overnight with primary antinitrotyrosine antibody (1:1000), anti-PAR antibody (1:500) and anti-ICAM-1 antibody (1:500). Separate sections were also incubated with control solutions consisting of PBS alone or a 1:500 dilution of nonspecific purified rabbit IgG (DBA). Specific labeling was detected using a biotin-conjugated goat antirabbit IgG (DBA) and avidin-biotin peroxidase (DBA). Samples were then viewed under a light microscope.

[4] = tested on: Myeloperoxidase (MPO) activity in kidneys; assay: Kidney myeloperoxidase (MPO) activity, Example 1; settings: at 96 hours
Method: as §1
Myeloperoxidase (MPO) activity in kidneys was used as an indicator of polymorphonuclear (PMN) cell infiltration activation using a method previously described (Hillegass et al, J. Pharmacol. Methods. 24(4):285-95,1990).
At the end of the experiments, kidney tissue was weighed and homogenized in a solution containing 0.5% (wt/vol) hexadecyltrimethylammonium bromide dissolved in 10 mmol/L potassium phosphate buffer (pH 7.4) and centrifuged for 30 minutes at 20,000 g at 4° C. […] The rate of change in absorbance was measured spectrophotometrically at 650 nm. MPO activity was defined as the quantity of enzyme required to degrade 1 mmol of H2O2 at 37° C. and was expressed in U/g wet tissue.

diabetic rats = assay: CIN model, Example 2: NAC and Metalloporphyrin A in diabetic rats; settings: diabetic (STZ) rats + Iomeprol, NAC 3-100 mg/kg i.v., or NAC 10-100 mg/kg + Metalloporphyrin A 1 mg/kg i.v., at −30 min
Method: Male Wistar rats (150-200 g; Harlan Nossanr) were housed in a controlled environment and provided with standard rodent chow and water. Diabetes was induced after 2 hours of fasting. The animals received a single 60 mg/kg intravenous (i.v.) injection of streptozotocin (Sigma, St. Louis, Mo.) in 10 mM sodium citrate buffer, pH 4.5 (see figure). Control non-diabetic animals were fasted and received citrate buffer alone. After 24 hours, animals with blood glucose levels greater than 250 mg/dl were considered diabetic. The diabetic state was confirmed by evaluating the blood glucose levels. Ten days following the induction of diabetes rats were anesthetized with 90 mg/kg ketamine i.m. and 10 mg/kg xylazine i.m. and were treated with the contrast agent iomeprol (10 mL/kg injected via the lateral tail vein) or with 0.9% normal saline. The contrast agent used was the low osmolar non-ionic monomer iomeprol (Iomeron, 400 mgI mL-1; Bracco SpA, Milan, Italy) with an osmolality of 726±34 mosmol/kg H2O.
Blood samples were collected via the lateral tail vein into S1/3 tubes containing serum gel at 0 and 24 hours. The samples were centrifuged (6000 r.p.m. for 3 min) to separate plasma. All plasma samples were analyzed for biochemical parameters within 24 hours after collection. Plasma and urine concentrations of creatinine were measured as indicators of impaired glomerular function. Creatinine clearance was calculated using the following formula (=UV/P), where U refers to Creatinine concentration in urine, V to urine volume/min and P to serum creatinine.
Protein concentration in urine was determined by Bio-Rad DC Protein Assay (BioRad, Richmond Calif.). The Bio-Rad DC protein assay is a colorimetric assay for protein concentration.

[5] = diabetic rats + i.v. Iomeprol, Metalloporphyrin A 30-1000 μg/kg or NAC 10 mg/kg i.p.
[6] = diabetic rats + i.v. saline (no contrast agent), Metalloporphyrin A 1000 μg/kg or NAC 10 mg/kg i.p.

## CC(=O)N[C@@H](CS)C(=O)O [NAC, N-acetylcysteine]
[1]
  plasma NGAL levels: significantly lower
[2]; [5]
  MDA levels in the kidney: significant reductions
[2]; [6]
  MDA levels in the kidney: significantly reduced the increase
[3]
  ICAM-1 staining/expression in kidney medulla: afforded protection
  Nitrotyrosine staining/expression in kidney medulla: afforded protection
  PAR staining/expression in kidney medulla: afforded protection
[4]; [5]
  kidney MPO activity: significant reductions
[4]; [6]
  kidney MPO activity: significantly reduced the increase
Diabetic rats; 24 h
  plasma creatinine: significant reductions
Diabetic rats; 24 hours
  total protein concentration in the urine: significant reductions
  urine αGST concentration: significant reduction
